Measurements reported in publication PMC4147775, “Stimulation of Hepatic Apolipoprotein A-I Production by Novel Thieno-Triazolodiazepines: Roles of the Classical Benzodiazepine Receptor, PAF Receptor, and Bromodomain Binding” (Lipid insights, 2013).
Like-named read-outs stand apart in the source and are kept apart here.

Tests used:
[1] = tested on: apoA-I production by Hep-G2 cells; test: apoA-I production by HepG2 cells (ELISA); format: cell-based, human; details: result in words (Figure 5)
Procedure: On the day of the experiment, supernatant medium was discarded and replaced by a solution of test compounds in HCM™ medium, which was prepared from DMSO stock solutions immediately before use. Stock solution concentrations assured that DMSO never exceeded 0.1% in the assay, as DMSO alone exerts significant effects on hepatocyte gene expression. Each concentration was run in triplicate whereas multiple wells were prepared for vehicle (DMSO) controls. The cells were cultured in the presence of the studied compounds and DMSO control for 72 hours at 37°C in 5% CO2 in air. The supernatants were replaced by a fresh dilution of test compounds after 24 hours and 48 hours, respectively. […]
After removal of the supernatants after 72 hours, all wells were washed 3 times with 200 μL isotonic 0.29 MD-mannitol and 25 μL d H2O was added to each well. The protein content of each well was determined using the Pierce® BCA Protein Assay Kit according to kit instructions and calculated as micrograms cellular protein per well.
For apoA-I detection, the human apoA1 ELISA kit from Mabtech Nacka, Sweden (Catalog no. 3710-1H-20) was used. […] Finally, the chromogenic substrate was added, and absorbance was measured at 450 nm.
The apoA-I content of each sample was calculated using the standard curve generated with each plate and was expressed as ng apoA-I per mg of cellular protein.

BRD3(1) = target: T1, BRD3(1) (Homo sapiens, UniProt Q15059); test: Protein stability shift assay (thermal shift), BRD3(1); format: binding; details: 10 μM ligand
T1 construct: the second as compared with the first bromodomain of these BRDs

BAZ2B = target: T2, BAZ2B (Homo sapiens, UniProt Q9UIF8); test: Protein stability shift assay (thermal shift), BAZ2B; format: binding; details: 10 μM ligand
T2 construct: Thermal shift (Δtm^obs) of human bromodomains in the presence of 10 μM compound
T2 sequence (Q9UIF8 2060-2164 limits assumed): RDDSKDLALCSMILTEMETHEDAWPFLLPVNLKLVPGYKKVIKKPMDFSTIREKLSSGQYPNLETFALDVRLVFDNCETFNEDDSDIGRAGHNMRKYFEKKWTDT

BRD4(2) = target: T3, BRD4(2) (Homo sapiens, UniProt O60885); test: Protein stability shift assay (thermal shift), BRD4(2); format: binding; details: 10 μM ligand
T3 construct: the second as compared with the first bromodomain of these BRDs

BRD3(2) [2] = target: T4, BRD3(2) (Homo sapiens, UniProt Q15059); test: Isothermal titration calorimetry, BRD3(2); format: binding; design: 2 μM for the first bromodomain in BRD4 and 0.5 μM for the second bromodomain in BRD3; details: ITC
BRD2(2) = target: T5, BRD2(2) (Homo sapiens, UniProt P25440); test: Protein stability shift assay (thermal shift), BRD2(2); format: binding; details: 10 μM ligand
T5 construct: the second as compared with the first bromodomain of these BRDs

[3] = tested on: apoA-I production by primary human hepatocytes; test: apoA-I production by primary human hepatocytes (ELISA); format: cell-based; details: cultured human hepatocytes, 72 hours, maximal stimulation
[4] = Metabolic stability in human hepatocytes; format: in vitro ADME; details: cryopreserved human hepatocytes, read-out: stability in human hepatocytes (% remaining after 120 min)
[5] = tested on: fibrosarcoma cells (HT1080); test: Cytotoxicity: mitochondrial membrane potential (TMRM); details: 100 μM, 72 hours, result in words
CREBBP = target: T6, CREBBP (Homo sapiens, UniProt Q92793); test: Protein stability shift assay (thermal shift), CREBBP; format: binding; details: 10 μM ligand
T6 construct: Thermal shift (Δtm^obs) of human bromodomains in the presence of 10 μM compound

BRD3(2) [6] = target: T4, BRD3(2); test: Protein stability shift assay (thermal shift), BRD3(2); format: binding; design: the second as compared with the first bromodomain of these BRDs; details: 10 μM ligand
recombinant BRD3 domains = test: Bromodomain inhibition assay (Alphascreen), acetylated histone H4 peptide displacement, BRD3; format: biochemical; details: domains 1 and 2, result in words (Figure 4)
[7] = target: T7, human recombinant PAF receptor (Homo sapiens, UniProt P25105); test: Binding to PAF receptor, 3H-C16-PAF, CHO cells
T7 construct: expressed in transfected cells; host or cells: CHO cells

PB1(5) = target: T8, PB1(5) (Homo sapiens, UniProt Q86U86); test: Protein stability shift assay (thermal shift), PB1(5); format: binding; details: 10 μM ligand
T8 construct: Thermal shift (Δtm^obs) of human bromodomains in the presence of 10 μM compound

BRDT(2) = target: T9, BRDT(2) (Homo sapiens, UniProt Q58F21); test: Protein stability shift assay (thermal shift), BRDT(2); format: binding; details: 10 μM ligand
T9 construct: the second as compared with the first bromodomain of these BRDs

PCAF = target: T10, PCAF (Homo sapiens, UniProt Q92831); test: Protein stability shift assay (thermal shift), PCAF; format: binding; details: 10 μM ligand
T10 construct: Thermal shift (Δtm^obs) of human bromodomains in the presence of 10 μM compound
T10 sequence (Q92831 723-827 limits assumed): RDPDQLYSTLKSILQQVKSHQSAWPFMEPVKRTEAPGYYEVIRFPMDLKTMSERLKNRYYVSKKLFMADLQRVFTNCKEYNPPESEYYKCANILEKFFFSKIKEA

BRD2(1) = target: T11, BRD2(1) (Homo sapiens, UniProt P25440); test: Protein stability shift assay (thermal shift), BRD2(1); format: binding; details: 10 μM ligand
T11 construct: the second as compared with the first bromodomain of these BRDs

[8] = Cytotoxicity: ATP level (Cell Titer Glo); format: cell-based, human; details: 100 μM, 72 hours, result in words
BRDT(1) = target: T12, BRDT(1) (Homo sapiens, UniProt Q58F21); test: Protein stability shift assay (thermal shift), BRDT(1); format: binding; details: 10 μM ligand
T12 construct: the second as compared with the first bromodomain of these BRDs

recombinant BRD4 domains = test: Bromodomain inhibition assay (Alphascreen), acetylated histone H4 peptide displacement, BRD4; format: biochemical; details: domains 1 and 2, result in words (Figure 4)
central BZD receptor = test: Binding to central BZD receptor, 3H-flunitrazepam, rat cerebral cortex membranes; details: rat brain membranes, result in words (Figure 3A)
BRD4(1) [9] = target: T13, BRD4(1) (Homo sapiens, UniProt O60885); test: Isothermal titration calorimetry, BRD4(1); format: binding; design: 2 μM for the first bromodomain in BRD4 and 0.5 μM for the second bromodomain in BRD3; details: ITC
BRD4(1) [10] = target: T13, BRD4(1); test: Protein stability shift assay (thermal shift), BRD4(1); format: binding; design: the second as compared with the first bromodomain of these BRDs; details: 10 μM ligand

T4 sequence (Q15059 306-415 limits assumed): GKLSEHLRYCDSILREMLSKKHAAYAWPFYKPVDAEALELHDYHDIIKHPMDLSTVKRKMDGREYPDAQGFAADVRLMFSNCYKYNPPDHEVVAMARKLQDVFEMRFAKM
T7 sequence (P25105 whole entry): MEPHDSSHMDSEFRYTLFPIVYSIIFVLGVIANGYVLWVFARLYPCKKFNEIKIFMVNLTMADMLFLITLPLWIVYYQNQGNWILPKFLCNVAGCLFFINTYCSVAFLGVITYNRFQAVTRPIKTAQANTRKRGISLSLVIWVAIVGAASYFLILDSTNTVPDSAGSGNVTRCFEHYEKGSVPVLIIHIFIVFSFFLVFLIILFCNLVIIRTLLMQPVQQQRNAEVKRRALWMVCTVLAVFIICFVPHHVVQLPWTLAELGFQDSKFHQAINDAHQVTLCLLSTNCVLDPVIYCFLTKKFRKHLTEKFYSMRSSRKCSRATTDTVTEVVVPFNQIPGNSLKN
T5 sequence (P25440 344-453 limits assumed): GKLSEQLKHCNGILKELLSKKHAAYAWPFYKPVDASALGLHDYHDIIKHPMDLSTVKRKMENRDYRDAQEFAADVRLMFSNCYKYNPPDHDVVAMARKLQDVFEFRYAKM
T6 sequence (Q92793 1085-1192 limits assumed): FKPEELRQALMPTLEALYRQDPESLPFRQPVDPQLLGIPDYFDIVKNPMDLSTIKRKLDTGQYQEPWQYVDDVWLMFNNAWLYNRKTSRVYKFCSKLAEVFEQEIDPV
T1 sequence (Q15059 34-140 limits assumed): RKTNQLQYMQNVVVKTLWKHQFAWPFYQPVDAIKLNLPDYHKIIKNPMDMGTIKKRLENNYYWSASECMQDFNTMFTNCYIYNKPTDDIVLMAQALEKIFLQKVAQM
T8 sequence (Q86U86 653-763 limits assumed): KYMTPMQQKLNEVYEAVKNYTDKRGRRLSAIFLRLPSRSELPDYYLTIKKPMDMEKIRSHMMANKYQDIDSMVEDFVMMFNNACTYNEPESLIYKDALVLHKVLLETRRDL
T11 sequence (P25440 74-180 limits assumed): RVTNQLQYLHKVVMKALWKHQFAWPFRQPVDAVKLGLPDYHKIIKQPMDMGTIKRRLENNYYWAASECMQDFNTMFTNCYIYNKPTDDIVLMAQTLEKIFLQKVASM

Cc1sc2c(c1C)C(c1ccc(Cl)cc1)=NC(CC(=O)OC(C)(C)C)c1nnc(C)n1-2 (single isomer, unassigned; (+)) [(+)-JQ1, reference compound]
effect on apoA-I production [1]: very effective stimulator of apoA-I production

Cc1nnc2n1-c1sccc1C(c1ccccc1)=NC2(C)C [MDCO-3770]
Thermal shift (ΔTm obs) BRD3(1) (BRD3(1)): −0.2 | Thermal shift (ΔTm obs) BAZ2B (BAZ2B): −0.4 | Thermal shift (ΔTm obs) BRD4(2) (BRD4(2)): 2.5 | TΔS (BRD3(2) [2]; BRD3(2), 15°C): 0.04 kcal/mol | ΔH obs (BRD3(2) [2]; BRD3(2), 15°C): -4.62 ± 0.042 kcal/mol | N (BRD3(2) [2]; BRD3(2), 15°C, single binding site model): 1.02 ± 0.006 | Kd (BRD3(2) [2]; KD, BRD3(2), 15°C, reverse titration): 513 ± 40.5 nM | Kd (BRD3(2) [2]; binding affinity, second bromodomain in BRD3, rounded in text): 500 nM | Thermal shift (ΔTm obs) BRD2(2) (BRD2(2)): 0.0 | stimulation of apoA-I production [3]: up to 3 fold | remaining at 2 h, 10 μM ([4]; donor 2, 10 μM): 97% | mitochondrial membrane potential in fibrosarcoma cells [5]: no effect at 100 μM (n = 5) | Thermal shift (ΔTm obs) CREBBP (CREBBP): −0.6 | Thermal shift (ΔTm obs) BRD3(2) (BRD3(2) [6]): 5.3 | inhibition of binding of acetylated histone H4 peptide to BRD3 domains (recombinant BRD3 domains): clearly more potent than the other 2 thieno-TZDs | competition with labeled PAF ([7]; cells expressing the human PAF receptor, result in words (Figure 3B)): only weakly displaced | Thermal shift (ΔTm obs) PB1(5) (PB1(5)): −0.5 | Thermal shift (ΔTm obs) BRDT(2) (BRDT(2)): 0.3 | Thermal shift (ΔTm obs) PCAF (PCAF): 1.5 | Thermal shift (ΔTm obs) BRD2(1) (BRD2(1)): −1.1 | ATP level in human hepatocytes [8]: no effect at 100 μM (n = 3) | Thermal shift (ΔTm obs) BRDT(1) (BRDT(1)): −0.9 | inhibition of binding of acetylated histone H4 peptide to BRD4 domains (recombinant BRD4 domains): clearly more potent than the other 2 thieno-TZDs | competition with labeled flunitrazepam (central BZD receptor): did not compete | TΔS (BRD4(1) [9]; BRD4(1), 15°C): 0.01 kcal/mol | ΔG (BRD4(1) [9]; BRD4(1), 15°C): -6.71 kcal/mol | ΔH obs (BRD4(1) [9]; BRD4(1), 15°C): -6.71 ± 0.103 kcal/mol | N (BRD4(1) [9]; BRD4(1), 15°C, single binding site model): 0.99 ± 0.011 | Kd (BRD4(1) [9]; KD, BRD4(1), 15°C, reverse titration): 2060 ± 141 nM | Kd (BRD4(1) [9]; binding affinity, first bromodomain in BRD4, rounded in text): 2000 nM | Thermal shift (ΔTm obs) BRD4(1) (BRD4(1) [10]): 3.3

C[C@]12CC[C@H]3[C@@H](CCC4=CC(=O)CC[C@@]43C)[C@@H]1CC[C@@H]2O [Testosterone, reference compound]
remaining at 2 h, 10 μM ([4]; donor 1, 10 μM): 64%

CCCCCCCCCCCCCCCCOC[C@H](COP(=O)([O-])OCC[N+](C)(C)C)OC(C)=O [C16-PAF, reference compound]
IC50 ([7]; 3H-C16-PAF, CHO cells expressing human recombinant PAF receptor, reference): 0.7 nM

O=C(O)Cc1ccccc1Nc1c(Cl)cccc1Cl [Diclofenac, reference compound]
remaining at 2 h, 10 μM ([4]; donor 1, 10 μM): 70 ± 10%
